{
  "source": "patent US10369134B2",
  "about": "“Nonracemic mixtures and uses thereof” (Sunovion Pharmaceuticals Inc., priority 2017, dated 2019)",
  "key": {"[1]": {"details": "cited from earlier work"}, "[2]": {"assay": "Solubility of crystal forms", "type": "physicochemical", "details": "thermodynamic from solid", "from_the_text": "In various embodiments, the compositions of the present inventions use new crystalline forms of enantiomeric amisulpride, Form A and Form A′. […] It is to be understood that upon dissolution of the compound it is no longer of a crystalline form, thus one of ordinary skill in the art will understand that the specific rotation in Table 7 refers to that of the non-crystalline compound."}, "[3]": {"assay": "Dynamic vapor sorption (DVS) water sorption isotherm", "type": "physicochemical", "details": "for maximum mass change in water sorption isotherms: 25° C., scanned over 0 to 95% relative humidity; for Change Mass: FIG. 8D", "from_the_text": "In various embodiments, the hygroscopicity of crystal forms of racemic amisulpride, enantiomeric amisulpride, and enantiomeric amisulpride solvates are characterized by dynamic vapor sorption (DVS). DVS is a gravimetric technique that measures how much of a solvent is absorbed by a sample by varying the vapor concentration surrounding the sample (e.g., relative humidity) and measuring the change in mass. In the present application, DVS is used to generate water sorption isotherms, which represent the equilibrium amount of vapor sorbed as a function of steady state relative vapor pressure at a constant temperature."}, "[4]": {"assay": "Plasma (S)-amisulpride levels during the PET study", "type": "in vivo", "details": "human, single oral solution 25-200 mg", "protocol": "Plasma samples were collected throughout the course of the PET scan session and were analyzed for (S)-amisulpride levels."}, "rat": {"system": "rat", "assay": "Forced Swim test", "type": "in vivo", "protocol": "The Forced Swim test (FST) is an indicator of the antidepressant-like activity of a test compound. The rat will swim before “giving up” and becoming immobile. A compound with antidepressant-like activity will decrease the time the rat is immobile.\nThe animals (n=90) were divided into five groups. […] In the training session, each animal was gently placed into the plastic cylinder containing 5.8 L of water set at 25±1° C. Fifteen minutes after the beginning of the training session, the animal was removed from the water. The dosing solutions were administered 15 minutes after finishing of the training.\nThe swim test was performed for 5 minutes in the same manner as the training session. In the swim test, the behavior of each animal was horizontally recorded using a video camera. After the swim test, animals were immediately sacrificed by inhalation of carbon dioxide.\nThe swim movies were handled in a blind manner to ensure that the person who measured the immobility time had no information on the treatment. An animal was judged to be immobile whenever it remained floating in the water without moving its body or forepaws except for the slight movement to maintain its posture. The total time for which the animal remained immobile was defined as the immobility time. An observer blinded to the doses measured the immobility times. The immobility time of each animal was measured to one decimal place and rounded to a whole number. Immobility time was expressed in units of seconds. In each series the means of immobility time were calculated and rounded to a whole number using. The mean and standard error (SE) for each group were calculated using the data obtained from three experimental series and rounded to a whole number. All results are represented as the mean±SE.\nThe data of imipramine were analyzed using t-test with a two-sided significance level of 5% (p<0.05)."}, "[5]": {"details": "0.05 M acetate buffer, aqueous buffer, solution pH 4.5, read-out: Solubility, 0.05 M Acetate Buffer"}, "[6]": {"details": "acetone/MtBE 1:4, organic solvent or mixture, read-out: Solubility, Acetone/MtBE 1:4"}, "[7]": {"details": "acetone/MtBE 1:9, organic solvent or mixture, read-out: Solubility, Acetone/MtBE 1:9"}, "[8]": {"details": "ethyl acetate, organic solvent or mixture, read-out: Solubility, Ethyl Acetate"}, "[9]": {"details": "simulated gastric fluid (no enzyme), pH 1.1, simulated gastric fluid, pH adjusted to 1.1 (Form A), 1.2 (Form A′), read-out: Solubility, Simulated Gastric Fluid (no enzyme)"}, "[10]": {"details": "simulated intestinal fluid (no enzyme), pH 6.7, fassgf or other biorelevant, pH adjusted to 6.7 (Form A), 6.9 (Form A′), read-out: Solubility, Simulated Intestinal Fluid (no enzyme)"}, "[11]": {"details": "water, pH 10.2, water, read-out: Solubility, Water"}},
  "note": "Like-named read-outs stand apart in the source and are kept apart here.",
  "data": [
    {"smiles": "CCN1CCCC1CNC(=O)c1cc(S(=O)(=O)CC)c(N)cc1OC", "note": "(racemic) [racemic amisulpride, 4-amino-N-[(1-ethylpyrrolidin-2-yl)methyl]-5-ethylsulfonyl-2-methoxy-benzamide]", "values": [
      {"measurement": "terminal plasma half-life", "setting": "[1]; biphasic elimination, Coukell et al. 1996", "value": "approximately 12 hours"}
    ]},
    {"smiles": "CCN1CCC[C@@H]1CNC(=O)c1cc(S(=O)(=O)CC)c(N)cc1OC", "note": "[(R)-amisulpride Form A, R-4-Amino-N-[(1-ethyl-2-pyrrolidinyl)methyl]-5-(ethylsulfonyl)-2-methoxybenzamide]", "values": [
      {"measurement": "solubility", "setting": "[2]; [5]", "value": "> 100000", "unit": "µg/mL"},
      {"measurement": "solubility", "setting": "[2]; [6]", "value": 8000, "unit": "µg/mL"},
      {"measurement": "solubility", "setting": "[2]; [7]", "value": 2000, "unit": "µg/mL"},
      {"measurement": "solubility", "setting": "[2]; [8]", "value": 3900, "unit": "µg/mL"},
      {"measurement": "solubility", "setting": "[2]; [9]", "value": "> 100000", "unit": "µg/mL"},
      {"measurement": "solubility", "setting": "[2]; [10]", "value": "> 100000", "unit": "µg/mL"},
      {"measurement": "solubility", "setting": "[2]; [11]", "value": 2000, "unit": "µg/mL"}
    ]},
    {"smiles": "CCN1CCCC1CNC(=O)c1cc(S(=O)(=O)CC)c(N)cc1OC.O=C(O)C(O)C(O)C(=O)O", "note": "[(S)-amisulpride D-tartrate, reference compound]", "values": [
      {"measurement": "maximum mass change in water sorption isotherms", "setting": "[3]", "value": "52±9", "unit": "%"}
    ]},
    {"smiles": "CCN1CCC[C@H]1CNC(=O)c1cc(S(=O)(=O)CC)c(N)cc1OC", "note": "[(S)-amisulpride Form A′, S-4-Amino-N-[(1-ethyl-2-pyrrolidinyl)methyl]-5-(ethylsulfonyl)-2-methoxybenzamide]", "values": [
      {"measurement": "solubility", "setting": "[2]; [5]", "value": "> 100000", "unit": "µg/mL"},
      {"measurement": "solubility", "setting": "[2]; [6]", "value": 8000, "unit": "µg/mL"},
      {"measurement": "solubility", "setting": "[2]; [7]", "value": 2000, "unit": "µg/mL"},
      {"measurement": "solubility", "setting": "[2]; [8]", "value": 3900, "unit": "µg/mL"},
      {"measurement": "solubility", "setting": "[2]; [9]", "value": "> 100000", "unit": "µg/mL"},
      {"measurement": "solubility", "setting": "[2]; [10]", "value": "> 100000", "unit": "µg/mL"},
      {"measurement": "solubility", "setting": "[2]; [11]", "value": 2000, "unit": "µg/mL"},
      {"measurement": "maximum mass change in water sorption isotherms", "setting": "[3]", "value": 0.35, "unit": "%"},
      {"measurement": "Change Mass", "setting": "[3]; 19.077 mg, relative humidity 0 %, rising steps", "value": 0.00, "unit": "wt %"},
      {"measurement": "Change Mass", "setting": "[3]; relative humidity 1 %, falling steps", "value": "−0.01", "unit": "wt %"},
      {"measurement": "Change Mass", "setting": "[3]; relative humidity 10 %, falling steps", "value": 0.01, "unit": "wt %"},
      {"measurement": "Change Mass", "setting": "[3]; relative humidity 10 %, rising steps", "value": 0.03, "unit": "wt %"},
      {"measurement": "Change Mass", "setting": "[3]; relative humidity 20 %, falling steps", "value": 0.03, "unit": "wt %"},
      {"measurement": "Change Mass", "setting": "[3]; relative humidity 20 %, rising steps", "value": 0.05, "unit": "wt %"},
      {"measurement": "Change Mass", "setting": "[3]; relative humidity 30 %, falling steps", "value": 0.05, "unit": "wt %"},
      {"measurement": "Change Mass", "setting": "[3]; relative humidity 30 %, rising steps", "value": 0.07, "unit": "wt %"},
      {"measurement": "Change Mass", "setting": "[3]; relative humidity 40 %, falling steps", "value": 0.07, "unit": "wt %"},
      {"measurement": "Change Mass", "setting": "[3]; relative humidity 40 %, rising steps", "value": 0.09, "unit": "wt %"},
      {"measurement": "Change Mass", "setting": "[3]; relative humidity 50 %, falling steps", "value": 0.08, "unit": "wt %"},
      {"measurement": "Change Mass", "setting": "[3]; relative humidity 50 %, rising steps", "value": 0.11, "unit": "wt %"},
      {"measurement": "Change Mass", "setting": "[3]; relative humidity 60 %, falling steps", "value": 0.11, "unit": "wt %"},
      {"measurement": "Change Mass", "setting": "[3]; relative humidity 60 %, rising steps", "value": 0.13, "unit": "wt %"},
      {"measurement": "Change Mass", "setting": "[3]; relative humidity 70 %, falling steps", "value": 0.14, "unit": "wt %"},
      {"measurement": "Change Mass", "setting": "[3]; relative humidity 70 %, rising steps", "value": 0.16, "unit": "wt %"},
      {"measurement": "Change Mass", "setting": "[3]; relative humidity 75 %, falling steps", "value": 0.16, "unit": "wt %"},
      {"measurement": "Change Mass", "setting": "[3]; relative humidity 75 %, rising steps", "value": 0.18, "unit": "wt %"},
      {"measurement": "Change Mass", "setting": "[3]; relative humidity 80 %, falling steps", "value": 0.17, "unit": "wt %"},
      {"measurement": "Change Mass", "setting": "[3]; relative humidity 80 %, rising steps", "value": 0.19, "unit": "wt %"},
      {"measurement": "Change Mass", "setting": "[3]; relative humidity 90 %, falling steps", "value": 0.28, "unit": "wt %"},
      {"measurement": "Change Mass", "setting": "[3]; relative humidity 90 %, rising steps", "value": 0.25, "unit": "wt %"},
      {"measurement": "Change Mass", "setting": "[3]; relative humidity 95 %, first step at 95 %", "value": 0.34, "unit": "wt %"},
      {"measurement": "Change Mass", "setting": "[3]; relative humidity 95 %, second step at 95 %", "value": 0.35, "unit": "wt %"}
    ]},
    {"smiles": "CCN1CCC[C@H]1CNC(=O)c1cc(S(=O)(=O)CC)c(N)cc1OC", "note": "[(S)-amisulpride, S-4-Amino-N-[(1-ethyl-2-pyrrolidinyl)methyl]-5-(ethylsulfonyl)-2-methoxybenzamide]", "values": [
      {"measurement": "time frame in which plasma concentrations peaked", "setting": "[4]", "value": "approximately 3 hour"}
    ]},
    {"smiles": "CN(C)CCCN1c2ccccc2CCc2ccccc21", "note": "[Imipramine, imipramine]", "values": [
      {"measurement": "immobility time", "setting": "rat; 10 mg/kg i.p. at 24, 5 and 1 h before swim test, mean ± SE, vehicle 168±12", "value": "105 ± 15", "unit": "s"},
      {"measurement": "shortening of immobility time", "setting": "rat; 10 mg/kg i.p., in all series, vs vehicle", "value": "more than 20%"}
    ]},
    {"smiles": "OCCOCCN1CCN(C2=Nc3ccccc3Sc3ccccc32)CC1", "note": "[quetiapine]", "values": [
      {"measurement": "elimination half-life", "setting": "[1]; literature (Delaney and Nemeroff 2001)", "value": "about 7 hours"}
    ]}
  ]
}
